Measurements: patent US9062043B2, “Fused tricyclic compounds as serine-threonine protein kinase and PARP modulators” (SENHWA BIOSCIENCES, INC., priority 2006, dated 2015)
Like-named read-outs stand apart in the source and are kept apart here.

Columns and labels:
[1] = system: HCT-116 human colorectal carcinoma cells; assay: Cell proliferation assay, Alamar Blue, HCT-116; assay type: cell-based;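 further: cells exposed to compound for about 4 days, then Alamar Blue added and fluorescence read after about 4 h, medium-only wells as control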
[2] = biological target: PARP (Homo sapiens (Human), UniProt P09874); assay: PARP assay (chemiluminescent PARP assay kit, Trevigen); assay type: biochemical; conditions: for inhibition at 20 µM: read-out: PARP % inhib @ 20 uM
PARP, sequence (P09874 whole entry): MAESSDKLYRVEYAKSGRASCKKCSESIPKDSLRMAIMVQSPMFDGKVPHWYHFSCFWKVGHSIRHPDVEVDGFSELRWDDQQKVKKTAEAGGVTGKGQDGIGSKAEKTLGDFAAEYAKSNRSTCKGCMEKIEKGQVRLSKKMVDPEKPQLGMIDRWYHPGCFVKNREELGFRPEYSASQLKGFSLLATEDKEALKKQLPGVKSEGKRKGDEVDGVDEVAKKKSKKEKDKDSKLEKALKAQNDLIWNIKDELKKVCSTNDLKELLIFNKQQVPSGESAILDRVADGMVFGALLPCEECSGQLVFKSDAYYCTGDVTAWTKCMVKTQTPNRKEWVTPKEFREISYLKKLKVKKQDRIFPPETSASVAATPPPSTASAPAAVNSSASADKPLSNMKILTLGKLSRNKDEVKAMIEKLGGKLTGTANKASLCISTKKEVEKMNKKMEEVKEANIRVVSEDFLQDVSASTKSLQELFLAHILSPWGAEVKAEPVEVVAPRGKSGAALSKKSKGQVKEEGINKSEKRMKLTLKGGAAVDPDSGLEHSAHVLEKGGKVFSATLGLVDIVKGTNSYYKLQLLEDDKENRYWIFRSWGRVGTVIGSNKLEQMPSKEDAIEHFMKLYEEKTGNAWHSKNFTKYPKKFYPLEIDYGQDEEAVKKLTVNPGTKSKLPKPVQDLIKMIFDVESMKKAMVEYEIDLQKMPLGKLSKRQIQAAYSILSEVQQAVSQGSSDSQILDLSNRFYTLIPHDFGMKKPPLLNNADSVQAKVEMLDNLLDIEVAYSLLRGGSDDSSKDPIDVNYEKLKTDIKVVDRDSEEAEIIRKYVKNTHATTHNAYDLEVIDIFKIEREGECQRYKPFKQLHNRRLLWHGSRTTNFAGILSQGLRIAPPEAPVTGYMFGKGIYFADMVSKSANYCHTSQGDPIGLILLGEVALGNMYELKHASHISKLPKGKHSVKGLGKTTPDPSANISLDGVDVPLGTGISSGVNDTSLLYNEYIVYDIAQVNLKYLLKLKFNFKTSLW
Method: Modulatory activity of compounds described herein was assessed in vitro in cell-free CK2 assays. Modulatory activity of compounds described herein also are assessed in vitro in cell-free PARP assays. These assays are described hereafter.
PARP assays are conducted using a chemiluminescent PARP assay kit (Trevigen). Briefly, reactions are performed in Histone-coated strip wells, by adding 10 microliters test compound dissolved in 1×PARP Buffer (prepared by mixing 20×PARP buffer diluted with high-purity water) and 15 microliters diluted PARP-HSA enzyme (diluted in 1× PARP buffer, 0.1 unit per well) to 25 microliters PARP cocktail (prepared from 10×PARP cocktail and 10× activated DNA, both 2.5 microliters per well and 20 microliters per well of 1×PARP buffer). The reactions are incubated at ambient temperature for 60 minutes, then the liquid was removed. After washing the wells four times with PBS (200 ul), 50 microliters of STREP-HRP (Horseradish Peroxidase) solution (diluted 500-fold in 1× Strep-Diluent) was added and the reactions were allowed to incubate for 30 minutes at ambient temperature. The liquid was removed and, after washing the wells four times with PBS (200 ul), 50 microliters each of PeroxyGlo A and B (Chemiluminescent Horseradish Peroxidase substrates) are added and the resulting chemiluminescence quantified on the SpectraMax M5 plate reader.

[3] = HCT-116, Table 16, first HCT-116 column
[4] = HCT-116, Table 16, second HCT-116 column
[5] = 1 uM, Table 12, read-out: PARP % inhib @ 1 uM
[6] = at 1 μM, Table 10, read-out: PARP Inhibition %

IC50 [1, 3]	inhibition at 1 µM [2, 5]	Compound	other results
> 10 µM	–	O=C(O)c1ccc2c(c1)nc(Nc1ccc(F)cc1F)c1ccsc12	–
–	–	CCCNC(=O)c1cccc(Nc2nc3cc(C(=O)O)ccc3c3sccc23)c1	IC50 [1, 4]: > 10 µM
> 10 µM	–	O=c1[nH]c(-c2ccc3c(c2)nc(Nc2ccccc2)c2ccsc23)no1	–
–	75%	O=C(NCc1ccncc1)c1ccc2c(c1)[nH]c(=O)c1ccsc12	IC50 ([2]; Table 12): 1000 nM
–	–	CN(C)CCNC(=O)c1ccc2c(c1)[nH]c(=O)c1ccsc12	inhibition at 20 µM ([2]; Table 12): 85%
–	65%	COCCNC(=O)c1ccc2c(c1)[nH]c(=O)c1ccsc12	inhibition at 20 µM ([2]; Table 12): 93%; IC50 ([2]; Table 12): 400 nM
> 10 µM	–	O=C(O)c1ccc2c(c1)nc(Nc1nc3ccccc3[nH]1)c1ccsc12	–
–	29%	O=C(Nc1ccc(CN2CCS(=O)(=O)CC2)cc1)c1ccc2c(c1)[nH]c(=O)c1ccsc12	–
> 10 µM	–	COc1ccc(OC)c(Nc2nc3cc(C(=O)O)ccc3c3sccc23)c1	–
> 10 µM	–	O=C(O)c1ccc2c(c1)nc(NCCN1CCCC1)c1ccsc12	–
–	96%	NC1CCN(C(=O)c2ccc3c(c2)[nH]c(=O)c2ccsc23)CC1	IC50 ([2]; Table 12): 20 nM
–	69%	O=C(NC1CC1)c1ccc2c(c1)[nH]c(=O)c1ccsc12	inhibition at 20 µM ([2]; Table 12): 90%; IC50 ([2]; Table 12): 500 nM
> 10 µM	–	O=C(O)CNc1nc2cc(C(=O)O)ccc2c2sccc12	–
> 10 µM	–	COc1ccc(Nc2nc3cc(-c4nnn[nH]4)ccc3c3sccc23)cc1Cl	–
–	65%	CCCNC(=O)c1ccc2c(c1)[nH]c(=O)c1ccsc12	inhibition at 20 µM ([2]; Table 12): 88%; IC50 ([2]; Table 12): 1000 nM
> 10 µM	–	Clc1ccc(Nc2nc3cc(-c4nnn[nH]4)ccc3c3sccc23)cc1	–
> 10 µM	–	Fc1ccc(Nc2nc3cc(-c4nnn[nH]4)ccc3c3sccc23)cc1	–
> 10 µM	–	c1ccc(Nc2nc3ccccc3c3sccc23)cc1	–
–	71%	O=C(NCc1cccnc1)c1ccc2c(c1)[nH]c(=O)c1ccsc12	–
–	–	O=C(O)CNC(=O)c1cccc(Nc2nc3cc(C(=O)O)ccc3c3sccc23)c1	IC50 [1, 4]: > 10 µM
–	–	O=C(O)c1ccc2c(c1)nc(Nc1ccccc1)c1ccccc12	inhibition at 1 µM [2, 6]: 9%
–	71%	CC(=O)N1CCN(C(=O)c2ccc3c(c2)[nH]c(=O)c2ccsc23)CC1	inhibition at 20 µM ([2]; Table 12): 94%; IC50 ([2]; Table 12): 300 nM
–	–	O=C(O)c1ccc2c(c1)nc(Nc1cccc(Oc3ccccc3)c1)c1ccsc12	IC50 [1, 4]: > 10 µM

IC50 [1, 3]	inhibition at 1 µM [2, 5]	Compound	other results
–	40%	COC(=O)c1ccc2c3sccc3c(=O)n(CCCO)c2c1	–
> 10 µM	–	O=C(O)c1ccc2c(c1)nc(NCCN1CCOCC1)c1ccsc12	–
> 10 µM	–	N#Cc1ccc2c(c1)nc(Nc1ccccc1)c1ccsc12	–
–	0%	O=C(Nc1ccc(N2CCOCC2)cc1)c1ccc2c(c1)[nH]c(=O)c1ccsc12	inhibition at 20 µM ([2]; Table 12): 37%
–	67%	Cc1cc(CNC(=O)c2ccc3c(c2)[nH]c(=O)c2ccsc23)no1	IC50 ([2]; Table 12): 500 nM
–	31%	O=C(O)CNC(=O)c1ccc2c(c1)[nH]c(=O)c1ccsc12	inhibition at 20 µM ([2]; Table 12): 97%
> 10 µM	–	CN(c1ccccc1)c1nc2cc(C(=O)O)ccc2c2sccc12	–
–	72%	CC(C)(C)OC(=O)N1CCN(C(=O)c2ccc3c(c2)[nH]c(=O)c2ccsc23)CC1	IC50 ([2]; Table 12): 300 nM
–	40%	CC(C)(C)OC(=O)CCNC(=O)c1ccc2c(c1)[nH]c(=O)c1ccsc12	inhibition at 20 µM ([2]; Table 12): 82%
–	–	CN(C)CCNc1nc2cc(C(=O)O)ccc2c2ccccc12	inhibition at 1 µM [2, 6]: 15%
> 10 µM	–	O=C(O)c1ccc2c(c1)nc(NCc1ccncc1)c1ccsc12	–
> 10 µM	–	CCN(c1ccccc1)c1nc2cc(C(=O)O)ccc2c2sccc12	–
–	0%	O=C(Nc1ccc(Cl)cc1)c1ccc2c(c1)[nH]c(=O)c1ccsc12	inhibition at 20 µM ([2]; Table 12): 55%
2 µM	–	CN(C)CCNc1nc2ccccc2c2sccc12	–
–	24%	COC(=O)c1ccccc1NC(=O)c1ccc2c(c1)[nH]c(=O)c1ccsc12	–
–	–	COC(=O)c1ccc2c(c1)nc(Nc1ccccc1)c1ncsc12	IC50 [1, 4]: > 10 µM
> 10 µM	–	O=C(O)c1ccc2c(c1)nc(Nc1cccc(O)c1)c1ccsc12	–
> 10 µM	–	O=C(O)c1ccc2c(c1)nc(N1CCc3ccccc31)c1ccsc12	–
–	58%	O=C(O)c1ccc2c(c1)[nH]c(=O)c1ccsc12	inhibition at 20 µM ([2]; Table 12): 90%; IC50 ([2]; Table 12): 1000 nM
> 10 µM	–	COc1ccc(Nc2nc3cc(C(=O)O)ccc3c3sccc23)c(OC)c1	–
–	89%	CN(C)C(=O)c1ccc2c(c1)[nH]c(=O)c1ccsc12	inhibition at 20 µM ([2]; Table 12): 97%; IC50 ([2]; Table 12): 200 nM
–	0%	O=C(Nc1ccccc1)c1ccc2c(c1)[nH]c(=O)c1ccsc12	inhibition at 20 µM ([2]; Table 12): 22%
> 10 µM	–	O=C(O)c1ccc2c(c1)nc(Nc1ccccc1O)c1ccsc12	–

IC50 [1, 3]	inhibition at 1 µM [2, 5]	Compound	other results
> 10 µM	–	COc1ccc(Nc2nc3cc(C(=O)O)ccc3c3sccc23)cc1Cl	–
> 10 µM	–	O=C(O)c1ccc2c(c1)nc(NC1CC1)c1ccsc12	–
–	–	CC(C)Oc1cccc(Nc2nc3cc(-c4nnn[nH]4)ccc3c3sccc23)c1	IC50 [1, 4]: > 10 µM
> 10 µM	–	O=C(O)c1ccc2c(c1)nc(OCCCO)c1ccsc12	–
9 µM	–	NC(=O)c1ccc2c(c1)nc(Nc1ccccc1)c1ccsc12	–
–	12%	O=C(Nc1ccccc1C(=O)O)c1ccc2c(c1)[nH]c(=O)c1ccsc12	–
–	83%	O=C(NCCc1cnc[nH]1)c1ccc2c(c1)[nH]c(=O)c1ccsc12	inhibition at 20 µM ([2]; Table 12): 97%; IC50 ([2]; Table 12): 200 nM
–	45%	COc1ccc(CNC(=O)c2ccc3c(c2)[nH]c(=O)c2ccsc23)cc1	–
–	15%	COc1ccc(CCNC(=O)c2ccc3c(c2)[nH]c(=O)c2ccsc23)cc1OC	inhibition at 20 µM ([2]; Table 12): 67%
–	0%	O=C(Nc1cccnc1)c1ccc2c(c1)[nH]c(=O)c1ccsc12	inhibition at 20 µM ([2]; Table 12): 62%
> 10 µM	–	COc1ccccc1Nc1nc2cc(C(=O)O)ccc2c2sccc12	–
–	–	CN(C)CCNc1nc2cc(-c3nnn[nH]3)ccc2c2cnccc12	IC50 ([1]; HCT-116, Table 18): > 10 µM
–	49%	CC(C)(C)OC(=O)NC1CCN(C(=O)c2ccc3c(c2)[nH]c(=O)c2ccsc23)CC1	–
–	27%	COC(=O)c1ccc2c(c1)[nH]c(=O)c1ccsc12	inhibition at 20 µM ([2]; Table 12): 84%
> 10 µM	–	Cc1ccccc1Nc1nc2cc(C(=O)O)ccc2c2sccc12	–
> 10 µM	–	O=C(O)c1ccc2c(c1)nc(Nc1ccc(Cl)cc1)c1ccsc12	–
> 10 µM	–	Fc1ccc(Nc2nc3cc(-c4nnn[nH]4)ccc3c3sccc23)cc1Cl	–
> 10 µM	–	CS(=O)(=O)NC(=O)c1ccc2c(c1)nc(Nc1ccccc1)c1ccsc12	–
–	–	COc1cc(Nc2nc3cc(-c4nnn[nH]4)ccc3c3sccc23)ccc1F	IC50 [1, 4]: > 10 µM
> 10 µM	–	COC(=O)c1ccc2c(c1)nc(Nc1ccccc1)c1ccsc12	–
–	–	O=C(O)c1ccc2c(c1)nc(Nc1cccc(C(=O)N3CCOCC3)c1)c1ccsc12	IC50 [1, 4]: > 10 µM
> 10 µM	–	COc1cccc(Nc2nc3cc(-c4nnn[nH]4)ccc3c3sccc23)c1	–
–	–	CCOc1cccc(Nc2nc3cc(-c4nnn[nH]4)ccc3c3sccc23)c1	IC50 [1, 4]: > 10 µM

IC50 [1, 3]	inhibition at 1 µM [2, 5]	Compound	other results
–	–	CN(C)CCNc1nc2cc(C#N)ccc2c2cnccc12	IC50 ([1]; HCT-116, Table 18): 1.6 µM
> 10 µM	–	O=C(O)c1ccc2c(c1)nc(NCCCO)c1ccsc12	–
> 10 µM	–	Clc1nc2ccccc2c2sccc12	–
–	–	CNc1ncc2c(n1)c(NC1CC1)nc1cc(C(=O)O)ccc12	IC50 ([1]; HCT-116, Table 18): > 10 µM
> 10 µM	–	O=C(O)c1ccc2c(c1)nc(NCCc1ccccc1)c1ccsc12	–
–	–	C#Cc1cccc(Nc2nc3cc(C(=O)O)ccc3c3sccc23)c1 [drawing 967]	IC50 [1, 4]: > 10 µM
–	–	CN(C)CCNC(=O)c1cccc(Nc2nc3cc(C(=O)O)ccc3c3sccc23)c1	IC50 [1, 4]: > 10 µM
> 10 µM	–	CN(C)CCNc1nc2cc(-c3nnn[nH]3)ccc2c2sccc12	–
> 10 µM	–	O=C(O)c1ccc2c(c1)nc(NCc1cccnc1)c1ccsc12	–
> 10 µM	–	O=C(O)c1ccc2c(c1)nc(NCCO)c1ccsc12	–
> 10 µM	–	O=C(O)c1ccc2c(c1)nc(N1CCCC1)c1ccsc12	–
> 10 µM	–	O=C(O)c1ccc2c(c1)nc(Nc1ccc(N3CCOCC3)cc1)c1ccsc12	–
> 10 µM	–	N#Cc1ccc2c(c1)nc(Cl)c1ccsc12	–
> 10 µM	–	O=C(O)c1ccc2c(c1)nc(NCc1ccccn1)c1ccsc12	–
> 10 µM	–	O=C(NCCCO)c1ccc2c(c1)nc(NCCCO)c1ccsc12	–
> 10 µM	–	O=C(O)c1ccc2c(c1)nc(Nc1ccc(F)cc1)c1ccsc12	–
> 10 µM	–	O=C(O)c1ccc2c(c1)nc(N1CCOCC1)c1ccsc12	–
–	–	O=C(O)c1ccc2c(c1)nc(Nc1cccc(C(=O)NC3CC3)c1)c1ccsc12	IC50 [1, 4]: > 10 µM
–	–	c1cc2c(Nc3ccc4c(c3)OCCO4)nc3cc(-c4nnn[nH]4)ccc3c2s1	IC50 [1, 4]: > 10 µM
–	–	CCc1cccc(Nc2nc3cc(-c4nnn[nH]4)ccc3c3sccc23)c1	IC50 [1, 4]: > 10 µM

Compound	IC50 [1, 3]	inhibition at 1 µM [2, 5]	other results
COC(=O)c1ccc2c(c1)nc(Cl)c1ccsc12 [drawing 552]	–	18%	–
COC(=O)c1ccc2c(c1)nc(Cl)c1ccsc12 [drawing 842]	> 10 µM	–	–
O=C(O)c1ccc2c3sccc3c(=O)n(CCCO)c2c1	–	21%	–
CN(C)CCn1c(=O)c2ccsc2c2ccc(C(=O)O)cc21	–	5%	–
